This data set can be described thus: in vitro. Conditions: human, hela cells, % viability.

For orientation: viability means a read-out of living cells in per cent, often relative to untreated cells.

On to `Cc1ccccc1CN1CC[C@@H]2[C@H](C1)[C@@H](c1ccc(F)cc1)CN2C(=O)c1cccs1` [CBK285546], for which the viability at 28.5 h, 10 µM came out at 86.8%. Next, `CC(=O)NC(CC(=O)N1CCc2sccc2C1c1ccccc1)c1ccc(F)cc1` (centres unmarked) [CBK285548]: 112%. Next, `COc1ccc([C@H]2CN(Cc3ccccc3)[C@@H]3CCN(C(=O)c4ccccc4)C[C@H]23)cc1` [CBK285550]: 86.6%; `Cc1nc(C2CCCCN2C(=O)C2CCCCC2)ncc1C(=O)NCc1ccc(F)cc1` (centres unmarked) [CBK285554]: 86.5%; `Cc1cc(C)n(CC(=O)Nc2cccc(CCc3ccncc3)c2)c(=O)n1` [CBK285555]: 105%. The figure for `Cc1nc2ncnn2c(C)c1CCC(=O)Nc1cccc(CCc2ccncc2)c1` [CBK285557] is 99.8%. For `COc1nn(CC(=O)Nc2cccc(CCc3ccncc3)c2)c(=O)c2ccccc12` [CBK285560], the viability at 28.5 h, 10 µM turned out to be 94.5%. Next, `CCn1nc2c(c1C(=O)Nc1cccc(CCc3ccncc3)c1)CCCC2` [CBK285561]: 87.5%.

Consider `COc1ccc(F)cc1-c1cccc(CC2(C(=O)NCCc3ccccc3)CCOCC2)c1` [CBK285562], for which the viability at 28.5 h, 10 µM was 84.5%. The figure for `Cc1oc(C(=O)N2CCc3sccc3C2c2ccccc2)cc1CN1CCOCC1` (centres unmarked) [CBK285566] is 105%; for `Cc1cc(C)nc(N2CCC(c3cc(CCOc4cccc(C(F)(F)F)c4)[nH]n3)C2)n1` (centres unmarked) [CBK285568] it is 78.7%; for `O=C(NCc1cccs1)C1(Cc2cccc(-c3ccc(F)c(F)c3)c2)CCOCC1` [CBK285569] it is 93.2%. The figure for `O=C(NCCc1ccc(Cl)cc1)C1(Cc2ccc(-c3ccncc3)cc2)CCOCC1` [CBK285570] is 89%. For `CN1C[C@H](C(N)=O)[C@@H](c2ccc(CN(C)C(=O)c3cccc(Oc4ccccc4)c3)cc2)C1` [CBK285572], the viability at 28.5 h, 10 µM was found to be 114%. For `COc1ccc(C(NC(=O)c2cc(C)oc2CN2CCCC2)c2ccccc2)cc1` (centres unmarked) [CBK285573], the viability at 28.5 h, 10 µM is 118%.

`Cc1cc(C)nc(N2CCC(C3CC=CCN(CCc4ccccc4)C3=O)CC2)n1` (centres unmarked) [CBK285575]: the viability at 28.5 h, 10 µM is 105%. Next, `O=C(c1cc2c(s1)CCCC2)N1CCCCC1c1nnc(-c2nccc3ccccc23)o1` (centres unmarked) [CBK285577]: 61%; `COc1ccc(C(NC(=O)c2ccc(Cn3nc(C)cc3C)o2)c2ccccc2)cc1` (centres unmarked) [CBK285578]: 87.8%. Turning to `O=C(NC1Cc2ccccc2C1)c1cccc(-c2ccc(CC3CCCNC3=O)cc2)c1` (centres unmarked) [CBK285579], the viability at 28.5 h, 10 µM came to 94.9%. Next, `COc1ccc([C@H]2CN(C(=O)c3ccccc3)[C@@H]3CCN(Cc4cccc(F)c4)C[C@H]23)cc1` [CBK285584]: 98.9%; `COc1ccc(-c2ccc(OC)cc2C(=O)Nc2ccc(Cn3cncn3)cc2)cc1` [CBK285588]: 109%. The figure for `O=C(NCC1CCCCC1)C1(Cc2ccc(-c3cccnc3)cc2)CCOCC1` [CBK285591] is 92.6%. On to `CNC(=O)C1(Cc2ccccc2-c2ccccc2)CCN(C(=O)Cc2cccc(C)c2)CC1` [CBK285594], for which the viability at 28.5 h, 10 µM was determined as 104%. The figure for `CN(C(=O)c1c[nH]nc1-c1ccc(CNC(=O)c2cccc(Cl)c2)cc1)c1ccccc1` [CBK285597] is 79.9%; for `Cc1ccc(C(=O)NCc2ccc(-c3n[nH]cc3C(=O)N(C)Cc3ccccc3)cc2)cc1` [CBK285598] it is 100%; for `O=C(NCC1CCCCC1)C1(Cc2cccc(-c3cccnc3)c2)CCOCC1` [CBK285607] it is 97.5%. The figure for `COc1cccc([C@H]2CN(C(=O)c3ccccc3)[C@@H]3CCN(Cc4ccccc4F)C[C@H]23)c1` [CBK285608] is 97.6%. Next, `COc1cccc([C@H]2CN(C(=O)c3ccccc3)[C@@H]3CCN(Cc4cccs4)C[C@H]23)c1` [CBK285609]: 102%; `COc1cccc([C@H]2CN(C(=O)c3ccccc3)[C@@H]3CCN(Cc4ccsc4)C[C@H]23)c1` [CBK285611]: 104%. Take `O=C(c1ccccc1)N1C[C@@H](c2ccsc2)[C@@H]2CN(Cc3ccccc3F)CC[C@@H]21` [CBK285612]: the viability at 28.5 h, 10 µM is 116%. Next, `O=C(c1ccccc1)N1C[C@@H](c2ccsc2)[C@@H]2CN(Cc3ccccc3Cl)CC[C@@H]21` [CBK285613]: 101%; `COc1ccc(CN2CC[C@H]3[C@@H](C2)[C@H](c2ccsc2)CN3C(=O)c2ccccc2)cc1` [CBK285614]: 97.6%. The figure for `COc1ccccc1CN1CC[C@H]2[C@@H](C1)[C@H](c1ccsc1)CN2C(=O)c1ccccc1` [CBK285617] is 96%; for `COc1cccc(C(NC(=O)c2cccc(Cn3ccnc3C)c2)c2ccccc2)c1` (centres unmarked) [CBK285620] it is 111%.

Regarding `CC(=O)N1CCc2cc(NCc3nc4ccccc4n3C(C)c3ccccc3)ccc21` (centres unmarked) [CBK285621], the viability at 28.5 h, 10 µM worked out at 81.7%. The figure for `COCCNC(=O)c1cc(C2CN(CCc3ccccc3)CCO2)nc2ccccc12` (centres unmarked) [CBK285622] is 99.4%; for `O=C(c1ccccc1)N1C[C@H](c2ccsc2)[C@H]2CN(Cc3cccs3)CC[C@H]21` [CBK285623] it is 95.8%. The figure for `COc1cccc([C@H]2CN(C(=O)c3ccccc3)[C@@H]3CCN(Cc4ccccc4)C[C@H]23)c1` [CBK285624] is 88.2%; for `COc1cccc([C@H]2CN(C(=O)c3ccccc3)[C@@H]3CCN(Cc4cccc(F)c4)C[C@H]23)c1` [CBK285626] it is 92.6%. Turning to `Cc1cnccc1-c1c[nH]nc1-c1cccc(CNS(=O)(=O)c2ccc(F)c(F)c2)c1` [CBK285627], the viability at 28.5 h, 10 µM was determined as 96%. The figure for `COc1ccc2c(c1)CC(C(=O)N1CCc3sccc3C1c1cccs1)CO2` (centres unmarked) [CBK285628] is 110%; for `COc1cccc(CN2CCC(c3ncc(C(=O)Nc4ccc(F)cc4)c(C)n3)CC2)c1` [CBK285630] it is 89.8%; for `COc1ccc(-c2ccccc2NC(=O)c2cc(-n3cccn3)ccc2Cl)cc1` [CBK285634] it is 91.3%. As for `O=C(c1ccc(F)cc1)N1C[C@@H](c2ccsc2)[C@@H]2CN(Cc3ccccc3)CC[C@@H]21` [CBK285635], the viability at 28.5 h, 10 µM was 94.7%.

In the case of `O=C(c1ccc(F)cc1)N1C[C@H](c2ccsc2)[C@H]2CN(Cc3cccs3)CC[C@H]21` [CBK285636], the viability at 28.5 h, 10 µM is 114%. Take `Cc1ccc(CN2CC[C@H]3[C@@H](C2)[C@H](c2ccsc2)CN3C(=O)c2ccc(F)cc2)cc1` [CBK285637]: the viability at 28.5 h, 10 µM was 98.1%. Next, `Cc1ccccc1CN1CC[C@H]2[C@@H](C1)[C@H](c1ccsc1)CN2C(=O)c1ccc(F)cc1` [CBK285638]: 102%; `Cc1cccc(CN2CC[C@H]3[C@@H](C2)[C@H](c2ccsc2)CN3C(=O)c2ccc(F)cc2)c1` [CBK285639]: 94.9%; `O=C(c1ccc(F)cc1)N1C[C@@H](c2ccsc2)[C@@H]2CN(Cc3cccc(F)c3)CC[C@@H]21` [CBK285640]: 91.2%. Turning to `Cc1nc(C2CCN(C(=O)C3CCC3)CC2)nc2c1CCCN2CCc1ccccc1` [CBK285645], the viability at 28.5 h, 10 µM was found to be 97.3%.

Source of the values: publication PMC12040169 (PLOS Biology, 2025).
